What was measured:
[1] = Cytotoxicity against c-Met over-expressed human HT-29 cells assessed as cell growth inhibition after 72 hrs by MTT assay; conditions: HT-29, 72 h
[2] = Cytotoxicity against c-Met over-expressed human H460 cells assessed as cell growth inhibition after 72 hrs by MTT assay; conditions: NCI-H460, 72 h
[3] = Cytotoxicity against c-Met over-expressed human A549 cells assessed as cell growth inhibition after 72 hrs by MTT assay; conditions: A549, 72 h
[4] = Cytotoxicity against c-Met over-expressed human MKN45 cells assessed as cell growth inhibition after 72 hrs by MTT assay; conditions: MKN-45, 72 h

Row | Compound | IC50 [1] [nM] | IC50 [2] [nM] | IC50 [3] [nM] | IC50 [4] [nM]
1 | COc1ccc(-n2nc(C(=O)Nc3ccc(Oc4ccnc5cc(OCCCN6CCC(C)CC6)c(OC)cc45)c(F)c3)n(C)c2=O)cc1 | 1430 | 2400 | 620 | 590
2 | COc1ccc(-n2nc(C(=O)Nc3ccc(Oc4ccnc5cc(OCCCN6CCCCC6)c(OC)cc45)c(F)c3)n(C)c2=O)cc1 | 3120 | 2840 | 960 | 880
3 | COc1cc2c(Oc3ccc(NC(=O)c4nn(-c5ccccc5Cl)c(=O)n4C4CC4)cc3F)ccnc2cc1OCCCN1CCC(C)CC1 | 140 | 160 | 200 | 110
4 | COc1cc2c(Oc3ccc(NC(=O)c4nn(-c5ccc(F)cc5)c(=O)n4C)cc3F)ccnc2cc1OCCCN1CCN(C)CC1 | 250 | 370 | 240 | 350
5 | COc1cc2c(Oc3ccc(NC(=O)c4nn(-c5ccc(OC(F)F)cc5)c(=O)n4C)cc3F)ccnc2cc1OCCCN1CCN(C)CC1 | 220 | 290 | 290 | 140
6 | COc1cc2c(Oc3ccc(NC(=O)c4nn(-c5ccc(OC(F)F)cc5)c(=O)n4C)cc3F)ccnc2cc1OCCCN1CCC(C)CC1 | 190 | 250 | 120 | 220
7 | CCn1c(C(=O)Nc2ccc(Oc3ccnc4cc(OCCCN5CCCCC5)c(OC)cc34)c(F)c2)nn(-c2ccccc2OC(F)(F)F)c1=O | 190 | 250 | 190 | 120
8 | COc1cc2c(Oc3ccc(NC(=O)c4nn(-c5ccccc5Cl)c(=O)n4C4CC4)cc3F)ccnc2cc1OCCCN1CCN(C)CC1 | 190 | 230 | 130 | 63
9 | COc1cc2c(Oc3ccc(NC(=O)c4nn(-c5cccc(F)c5)c(=O)n4C)cc3F)ccnc2cc1OCCCN1CCCCC1 | 430 | 350 | 380 | 330
10 | COc1cc2c(Oc3ccc(NC(=O)c4nn(-c5cccc(F)c5)c(=O)n4C)cc3F)ccnc2cc1OCCCN1CCC(C)CC1 | 400 | 290 | 440 | 200
11 | COc1cc2c(Oc3ccc(NC(=O)c4nn(-c5ccccc5OC(F)(F)F)c(=O)n4C)cc3F)ccnc2cc1OCCCN1CCC(C)CC1 | 190 | 350 | 180 | 95
12 | CCn1c(C(=O)Nc2ccc(Oc3ccnc4cc(OCCCN5CCC(C)CC5)c(OC)cc34)c(F)c2)nn(-c2ccccc2OC(F)(F)F)c1=O | 160 | 200 | 220 | 87
13 | COc1cc2c(Oc3ccc(NC(=O)c4nn(-c5c(C)cccc5C)c(=O)n4C)cc3F)ccnc2cc1OCCCN1CCC(C)CC1 | 2680 | 3220 | 4550 | 2230
14 | COc1cc2c(Oc3ccc(NC(=O)c4nn(-c5ccccc5)c(=O)n4C)cc3F)ccnc2cc1OCCCN1CCC(C)CC1 | 670 | 830 | 380 | 470
15 | COc1ccc(-n2nc(C(=O)Nc3ccc(Oc4ccnc5cc(OCCCN6CCN(C)CC6)c(OC)cc45)c(F)c3)n(C)c2=O)cc1 | 1280 | 2140 | 720 | 1650
16 | COc1cc2c(Oc3ccc(NC(=O)c4nn(-c5ccccc5)c(=O)n4C)cc3F)ccnc2cc1OCCCN1CCCCC1 | 870 | 780 | 450 | 460
17 | COc1cc2c(Oc3ccc(NC(=O)c4nn(-c5ccc(Cl)cc5Cl)c(=O)n4C)cc3F)ccnc2cc1OCCCN1CCN(C)CC1 | 300 | 240 | 250 | 180
18 | COc1cc2c(Oc3ccc(NC(=O)c4nn(-c5ccc(F)cc5)c(=O)n4C)cc3F)ccnc2cc1OCCCN1CCCC1 | 970 | 730 | 680 | 760

From ChEMBL document CHEMBL3870316, “Design, synthesis and structure-activity relationships of novel 4-phenoxyquinoline derivatives containing 1,2,4-triazolone moiety as c-Met kinase inhibitors” (Eur J Med Chem, 2016)
